Experimental data reported in paper PMC6645542 (PLoS ONE, 2019).

What was measured:
[1] = target: Thioredoxin glutathione reductase from T. crassiceps (TcTGR) (Taenia crassiceps, UniProt A0ABR4QG96); assay: GSSG-reductase activity of TGR (NADPH oxidation at 340 nm); assay type: biochemical; conditions: for IC50: curcumin degradation products, 3 min incubation in TE buffer, 100 μM NADPH, 67 μM GSSG, read-out: IC50, inhibition of GSSG reductase activity of TcTGR; for inhibition at 200 µM: 200 μM of the compound, 3 min incubation (Fig 1a), read-out: maximal inhibition of GSSG reductase activity of TcTGR; for Recovered activity (%): B: TGR incubated with COP for 5 min, then thiol 50 μM added, control = 100%
Experimental: TGR activity was monitored spectrophotometrically by following the decrease in absorbance at 340 nm (ɛ = 6.22 mM^-1cm^-1) due to its NADPH-dependent ability to reduce GSSG [35, 36]. To determine the inhibitory ability of either curcuminoids, curcumin degradation products or curcumin oxidation products we used the following protocols: a) Curcuminoids. An enzyme aliquot (30 μL) was incubated in the presence of 1 μM NADPH; then, a 1.5 μL aliquot of the above mixture was added to 50 μM of the corresponding curcuminoid solution in TE buffer. At different incubation times, a small aliquot containing both NADPH and GSSG was added to start the reaction in a total volume of 600 μL. The enzyme activity of a reaction mixture prepared in the absence of any curcuminoid was taken as 100% relative activity b) Curcumin degradation products (CDP). The enzyme was treated as above and 1.5 μL aliquot of the mixture was added to the corresponding CDP solution at a selected concentration followed by a 2 min incubation period. Then, both NADPH and GSSG were added to start the reaction. The enzyme activity of a reaction mixture prepared in the absence of any CDP was taken as 100% relative activity. c) Curcumin oxidation products (COP). Curcumin final concentration 50 μM was incubated 15 min in TE buffer. Then, both TGR and the substrates NADPH and GSSG were added to start the reaction. Final concentrations of enzyme, NADPH and GSSG were 13 nM, 100 μM and 70 μM respectively. A unit of enzyme activity is defined as the amount of protein needed to oxidize one μmol NADPH per minute at 25°C.

[2] = Spectrophotometrical analysis of stability (absorbance at 426 nm / absorption spectrum); assay type: physicochemical
Experimental: Raúl Enriquez (Instituto de Química, UNAM, México). Curcumin 5 mM was dissolved in DMSO and stored at room temperature. […] The protein concentration of the purified enzyme was determined spectrophotometrically by reading the absorbance at 460 nm (ɛ = 11.3 mM^-1cm^-1) due to its FAD content. The absorption spectrum of curcuminoids (curcumin, DMC and BDMC) and the different curcumin degradation products (CDP) FM, V, VA, F-Ad, 4VG, and FA were recorded in a UV/Vis Beckman DU 730 Spectrophotometer. […] The detection of the curcumin oxidation products (COP) was performed by following the changes in the absorption spectrum immediately after a 100-fold dilution of the curcumin stock solution in TE buffer.

[3] = parameters: method as in PMID 25806475; conditions: cited from earlier work

Compound: COc1cc(/C=C/C(=O)O)ccc1O [ferulic acid]
- IC50 [1]: 465 µM

Compound: COc1cc(/C=C/C=O)ccc1O [ferulic aldehyde]
- IC50 [1]: 180 µM

Compound: O=C(/C=C/c1ccc(O)cc1)CC(=O)/C=C/c1ccc(O)cc1 [BDMC, bis-demethoxycurcumin]
- inhibition of the enzyme activity ([1]; 50 μM, diluted 30 min in TE buffer before enzyme, 30 min incubation with TGR (Fig 3)): no inhibition was observed
- inhibition at 200 µM [1]: 100%

Compound: N[C@@H](CCC(=O)N[C@@H](CS)C(=O)NCC(=O)O)C(=O)O [GSH, reduced glutathione, reference compound]
- Recovered activity (%) [1]: 14.7 ± 1.0%

Compound: COc1cc(/C=C/C(O)=C/C(=O)/C=C/c2ccc(O)cc2)ccc1O [DMC, demethoxycurcumin]
- inhibition at 200 µM [1]: 65%
- effect of NADPH on the stability ([2]; 50 μM in TE buffer, 100 μM NADPH, absorbance at 426 nm): no effect
- time after dilution at which the final product of oxidative transformation was achieved [3]: 48 h

Compound: COc1cc(/C=C/C(=O)CC(=O)/C=C/c2ccc(O)c(OC)c2)ccc1O [curcumin, (1E, 6E)-1,7-bis (4-hydroxy-3-methoxyphenyl)-1,6-heptadiene-3,5-dione]
- dilution time at which the maximal inhibitory ability was reached ([1]; 50 μM diluted in TE buffer in the absence of NADPH (Fig 4a)): 15 min
- inhibition of the enzyme activity ([1]; 50 μM diluted in TE buffer in the presence of 100 μM NADPH (Fig 4b)): no inhibition
- remaining activity at 50 µM ([1]; 50 μM diluted in TE buffer without NADPH, after 4 h incubation (Fig 4a grey line), read-out: activity relative to control): 80%
- GSSG reductase activity ([1]; 50 μM, diluted 30 min in TE buffer before enzyme, 1 min incubation with the enzyme (Fig 3a)): no GSSG reductase activity was detected
- inhibition at 200 µM [1]: 10%
- drop in the absorbance at 426 nm ([2]; 50 μM in TE buffer pH 7.8, 30 min incubation, in the absence of NADPH): 82%
- diminution in the absorbance at 426 nm ([2]; 50 μM in TE buffer pH 7.8, 30 min incubation, in the presence of 100 μM NADPH): 25%

Compound: O[C@@H](CS)[C@@H](O)CS (racemic) [DTT, 1,4-Dithio-DL-threitol, reference compound]
- Recovered activity (%) [1]: 20.3 ± 1.1%
